According to publication PMC5677254, “Design, Synthesis, and Characterization of N-Oxide-Containing Heterocycles with in Vivo Sterilizing Antitubercular Activity” (Journal of Medicinal Chemistry, 2017):
≈ marks a conversion by molar mass, not a printed value. Where “and” joins values, the source holds several entries; their conditions need not be identical. Equal entries are not always repeated. Where two headings read alike, the source gives them in different places.

How the values were obtained:
Mtb H37Rv (ATCC 27294) [1] = assay: Resazurin microtiter assay (REMA), MIC90 against bacteria in active state; type: cell-based; conditions: Mycobacterium tuberculosis, actively replicating M. tuberculosis H37Rv, REMA; for MIC90: read-out: MIC90
[2] = Cytotoxicity against MRC-5 cell line; conditions: human, cytotoxicity IC50, MRC-5 cell line
[3] = tested on: Candida albicans (ATCC 10231); assay: Spectrum of activity, OD570 after 48 h; type: cell-based; conditions: ATCC10231, read-out: MIC90 (antimicrobial activity)
Procedure: (§1) Determination of Minimal Inhibitory Concentration (MIC90) Against Bacteria in Dormant […]
(§2) The selective compounds (SI ≥ 10) were tested against the mycobacterium in a dormant state. The cultures were thawed, diluted in Middlebrook 7H12 broth, and sonicated for 5 s. The cultures were diluted to obtain the concentration between […] and 2 × 10^6 CFU/mL. TwoHfold serial dilutions of the compounds were prepared in a volume of […] in white 96Hwell microtiter plates, followed by the addition of […] of the cell suspension. The microplate cultures were placed under anaerobic conditions (oxygen concentration less than 0.16%) by using an Anoxomat model WS8080 (MART Microbiology) followed by two cycles of evacuation and filling with a mixture of 10% hydrogen (H2), 5% carbon dioxide (CO2), and the balance with nitrogen (N2). An anaerobic indicator strip was placed inside the chamber to visually confirm the removal of oxygen. The plates were incubated at 37°C for 10 days and then transferred to an ambient gaseous condition (5% CO2H enriched air) incubator for a 28 h “recovery.” On day 11 (after the 28Hh aerobic recovery), we determined the luminescence and calculated the MIC90.4
(§3) To establish the spectrum activity, we determined the MIC90 against E. coli (ATCC 25922) and S. aureus (ATCC 29213) by measuring the optical density at 570 nm after 16 h of incubation in Mueller–Hinton II broth (Becton Dickinson, Sparks; Maryland, United States) and against C. albicans (ATCC 10231) at OD570 after 48 h in Cellgro RPMI 1640 medium (Mediatech Inc., Manassas, Virginia, United States). The MIC was defined as the lowest concentration resulting in 90% reduction in absorption relative to that of untreated control cultures.
(§4) Determination of Minimal Inhibitory Concentration Against Isogenic Monoresistant Strains

[4] = tested on: Escherichia coli (ATCC 25922); assay: Spectrum of activity, OD570 after 16 h; type: cell-based; conditions: ATCC25922, read-out: MIC90 (antimicrobial activity)
Procedure: as §1, §2, §3, §4

[5] = tested on: Staphylococcus aureus (ATCC 29213); assay: Spectrum of activity, OD570 after 16 h; type: cell-based; conditions: ATCC29213, read-out: MIC90 (antimicrobial activity)
Procedure: as §1, §2, §3, §4

[6] = tested on: dormant M. tuberculosis H37Rv; assay: microbe, parasite or virus in culture; type: cell-based; conditions: Mycobacterium tuberculosis, dormant (nonreplicating) M. tuberculosis H37Rv
[7] = tested on: MRC-5 human lung fibroblast cell line; set-up: method as in PMID 27508879; conditions: cited from earlier work
Mtb H37Rv (ATCC 27294) [8] = tested on: Mtb H37Rv (ATCC 27294); set-up: method as in PMID 27508879; conditions: cited from earlier work

Row | SMILES | MIC90 (Mtb H37Rv (ATCC 27294) [1]) [µg/mL] | IC50 [2] [µg/mL] | other results
1 | N#Cc1c(-c2ccccc2)[n+]([O-])c2ccc(/C=N/NC(=O)c3ccncc3)cc2[n+]1[O-] [Compound 28] | 16.3 (≈ 39.7 µM) | 8.6 (≈ 21 µM) | –
2 | O=C(N/N=C/c1ccc2no[n+]([O-])c2c1)c1ccc(O)cc1 [Compound 14, (E)-6-((2-(4-Hydroxybenzoyl)hydrazono)methyl)benzo[c][1,2,5]oxadiazole 1-Oxide] | > 25 | – | MIC90 [3]: > 200 µM; MIC90 [4]: > 200 µM; MIC90 [5]: > 200 µM
3 | Nc1cccc(C(=O)N/N=C/c2ccc3no[n+]([O-])c3c2)c1 [Compound 16, (E)-6-((2-(3-Aminobenzoyl)hydrazono)methyl)benzo[c][1,2,5]oxadiazole 1-Oxide] | 5.3 (≈ 17.8 µM) | 24.4 (≈ 82.1 µM) | –
4 | N#Cc1c(-c2cccs2)[n+]([O-])c2ccc(C3OCCO3)cc2[n+]1[O-] [Compound 26, 3-Cyano-6-(1,3-dioxolan-2-yl)-2-(thiophen-2-yl)quinoxaline 1,4-Dioxide] | 4.1 (≈ 12 µM) | 5.9 (≈ 17.3 µM) | –
5 | NC(=O)c1c(COc2cccc(/C=N/NC(=O)c3ccncc3)c2)no[n+]1[O-] [Compound 4b, (E)-3-Carbamoyl-4-((3-((2-isonicotinoylhydrazono)methyl)phenoxy)methyl)-1,2,5-oxadiazole 2-Oxide] | 0.15 (≈ 0.392 µM) | 490 (≈ 1280 µM) | MIC90 [6]: 1.6 µg/mL (≈ 4.18 µM)
6 | Cc1ccc(-c2c(C#N)[n+]([O-])c3cc(C4OCCO4)ccc3[n+]2[O-])cc1 [Compound 20, 3-Cyano-6-(1,3-dioxolan-2-yl)-2-(p-tolyl)quinoxaline 1,4-Dioxide] | 5.7 (≈ 16.3 µM) | 6.2 (≈ 17.7 µM) | –
7 | CC(C)(C)c1ccc(C(=O)N/N=C/c2ccc3no[n+]([O-])c3c2)cc1 [Compound 10, (E)-6-((2-(4-(tert-Butyl)benzoyl)hydrazono)methyl)benzo[c][1,2,5]oxadiazole 1-Oxide] | 1.3 (≈ 3.84 µM) | 8.5 (≈ 25.1 µM) | –
8 | N#Cc1c(-c2ccco2)[n+]([O-])c2ccc(C3OCCO3)cc2[n+]1[O-] [Compound 25, 3-Cyano-6-(1,3-dioxolan-2-yl)-2-(furan-2-yl)quinoxaline 1,4-Dioxide] | 1.7 (≈ 5.23 µM) | 11.6 (≈ 35.7 µM) | –
9 | N#Cc1c(-c2ccccc2)[n+]([O-])c2ccc(C3OCCO3)cc2[n+]1[O-] [Compound 19] | 10.3 (≈ 30.7 µM) | 10.7 (≈ 31.9 µM) | –
10 | NC(=O)c1c(COc2ccc(/C=N/NC(=O)c3ccncc3)cc2)no[n+]1[O-] [Compound 4c, (E)-3-Carbamoyl-4-((4-((2-isonicotinoylhydrazono)methyl)phenoxy)methyl)-1,2,5-oxadiazole 2-Oxide] | 0.16 (≈ 0.418 µM) | 443 (≈ 1160 µM) | MIC90 [6]: 0.78 µg/mL (≈ 2.04 µM)
11 | NC(=O)c1c(COc2ccccc2/C=N/NC(=O)c2ccncc2)no[n+]1[O-] [Compound 4a, (E)-3-Carbamoyl-4-((2-((2-isonicotinoylhydrazono)methyl)phenoxy)methyl)-1,2,5-oxadiazole 2-Oxide] | 0.16 (≈ 0.418 µM) | 327 (≈ 854 µM) | MIC90 [6]: 2.95 µg/mL (≈ 7.72 µM)
12 | O=C(N/N=C/c1ccc2no[n+]([O-])c2c1)c1ccc([N+](=O)[O-])cc1 [Compound 11, (E)-6-((2-(4-Nitrobenzoyl)hydrazono)methyl)benzo[c][1,2,5]oxadiazole 1-Oxide] | 1.73 (≈ 5.29 µM) | – | MIC (Mtb H37Rv (ATCC 27294) [1]): > 62 µM; MIC90 [3]: > 200 µM; MIC90 [4]: > 200 µM; MIC90 [5]: > 200 µM
13 | Nc1ccccc1C(=O)N/N=C/c1ccc2no[n+]([O-])c2c1 [Compound 15, (E)-6-((2-(2-Aminobenzoyl)hydrazono)methyl)benzo[c][1,2,5]oxadiazole 1-Oxide] | 3.7 (≈ 12.4 µM) | 36.4 (≈ 122 µM) | –
14 | O=C(N/N=C/c1ccc2no[n+]([O-])c2c1)c1cccc(O)c1 [Compound 13, (E)-6-((2-(3-Hydroxybenzoyl)hydrazono)methyl)benzo[c][1,2,5]oxadiazole 1-Oxide] | > 25 | – | –
15 | N#Cc1c(-c2ccc(Cl)cc2)[n+]([O-])c2ccc(C3OCCO3)cc2[n+]1[O-] [Compound 21, 2-(4-Chlorophenyl)-3-cyano-6-(1,3-dioxolan-2-yl)quinoxaline 1,4-Dioxide] | 6.4 (≈ 17.3 µM) | 5 (≈ 13.5 µM) | –
16 | O=C(N/N=C/c1ccc(Oc2no[n+]([O-])c2S(=O)(=O)c2ccccc2)cc1)c1ccncc1 [(E)-4-(4-((2-isonicotinoylhydrazono)methyl)phenoxy)-3-(phenylsulfonyl)-1,2,5-oxadiazole 2-oxide] | – | – | IC50 [7]: 43 µM; MIC90 (Mtb H37Rv (ATCC 27294) [8]): 1 µM and 1.0 µM
17 | NNC(=O)c1ccncc1 [isoniazid, reference compound] | 0.014 (≈ 0.102 µM) | – | –
18 | O=C(N/N=C/c1ccc2no[n+]([O-])c2c1)c1ccccc1 [Compound 9, (E)-6-((2-Benzoylhydrazono)methyl)benzo[c][1,2,5]oxadiazole 1-Oxide] | 2.4 (≈ 8.5 µM) | 36.8 (≈ 130 µM) | –
19 | N#Cc1c(-c2ccc(F)cc2)[n+]([O-])c2ccc(C3OCCO3)cc2[n+]1[O-] [Compound 23, 3-Cyano-6-(1,3-dioxolan-2-yl)-2-(4-fluorophenyl)quinoxaline 1,4-Dioxide] | 8.6 (≈ 24.3 µM) | 7.7 (≈ 21.8 µM) | –
20 | O=C(N/N=C/c1ccc2no[n+]([O-])c2c1)c1ccccc1O [Compound 12, (E)-6-((2-(2-Hydroxybenzoyl)hydrazono)methyl)benzo[c][1,2,5]oxadiazole 1-Oxide] | – | – | MIC (Mtb H37Rv (ATCC 27294) [1]): 16.4 µg/mL
21 | COc1ccc(-c2c(C#N)[n+]([O-])c3cc(C4OCCO4)ccc3[n+]2[O-])cc1 [Compound 22, 3-Cyano-6-(1,3-dioxolan-2-yl)-2-(4-methoxyphenyl)quinoxaline 1,4-Dioxide] | 4.4 (≈ 12 µM) | 5.5 (≈ 15.1 µM) | –
22 | Nc1ccc(C(=O)N/N=C/c2ccc3no[n+]([O-])c3c2)cc1 [Compound 17, (E)-6-((2-(4-Aminobenzoyl)hydrazono)methyl)benzo[c][1,2,5]oxadiazole 1-Oxide] | 3.16 (≈ 10.6 µM) | 250 (≈ 841 µM) | MIC90 [3]: > 200 µM; MIC90 [4]: > 200 µM; MIC90 [5]: > 200 µM
23 | N#Cc1c(-c2ccc(OC(F)(F)F)cc2)[n+]([O-])c2ccc(C3OCCO3)cc2[n+]1[O-] [Compound 24, 3-Cyano-6-(1,3-dioxolan-2-yl)-2-(4-(trifluoromethoxy)phenyl)quinoxaline 1,4-Dioxide] | 6.5 (≈ 15.5 µM) | 28 (≈ 66.8 µM) | –
